Measured values as given in patent publication US20080132569A1, “Antifungal Compositions for Inhibiting Growth of Wood Decay Fungi and Use Thereof” (priority 2006, published 2008).
≈ marks a conversion by molar mass, not a printed value. Where two headings read alike, the source gives them in different places.

Key:
[1] = Antifungal assay, mycelium growth on PDA containing the chemical; details: L. betulina; for Antifungal index: Example 3, FIG. 2(A)
[2] = as above; details: T. versicolor
[3] = as above; details: G. trabeum
[4] = as above; details: L. sulphureus
[5] = as above; details: C. globosum; for Antifungal index (%): Table 2
[6] = as above; details: W. extensa; for Antifungal index (%): Table 2
[7] = as above; details: P. placenta; for Antifungal index (%): Table 2
[8] = as above; details: F. pinicola; for Antifungal index (%): Table 2
[9] = as above; details: A. taxa; for Antifungal index (%): Table 2
[10] = as above; details: S. commune; for Antifungal index (%): Table 2
[11] = Antifungal activity on paper (CNS 2690, TAPPI T487 cm-93); details: A. terreus, 14 days
[12] = as above; details: A. niger, 14 days
[13] = as above; details: C. globosum, 14 days
[14] = Antifungal assay, mycelium growth on PDA (fungi); details: soft rot, Cu tolerant, and brown rot fungi
[15] = Antifungal assay, mycelium growth on PDA (fungi)
[16] = Antifungal assay, mycelium growth on PDA (fungi); details: 100 μg/ml; W. extensa, P placenta, L. sulphureus, G. trabeum and F. pinicola
[17] = Example 1, FIG. 1(A), read-out: IC50 (concentration that inhibited 50% of the mycelium growth)
[18] = 100 μg/cm^2 on filter paper, listed as octyl gallate
[19] = 400 μg/cm^2 on filter paper, listed as octyl gallate

Structure (SMILES): CCCCCCCCOC(=O)c1cc(O)c(O)c(O)c1 [Octyl gallate, octyl gallate]
- Antifungal index ([1]; 25 μg/ml): 16%
- Antifungal index (%) ([1]; 25 μg/ml, Table 2): 16%
- Antifungal index (%) ([1]; 50 μg/ml, Table 2): 28%
- Antifungal index ([1]; 100 μg/ml): 42%
- Antifungal index (%) ([1]; 100 μg/ml, Table 1): 43 ± 2.5%
- Antifungal index (%) ([1]; 100 μg/ml, Table 2): 41%
- Antifungal index (%) ([1]; 200 μg/ml, Table 2): 88%
- IC50 [1, 17]: 470 µM
- IC50 value ([1]; Table 3): 137.6 µg/mL (≈ 487 µM)
- Antifungal index (%) ([2]; 25 μg/ml, Table 2): 37%
- Antifungal index (%) ([2]; 50 μg/ml, Table 2): 50%
- Antifungal index (%) ([2]; 100 μg/ml, Table 1): 69 ± 9.1%
- Antifungal index (%) ([2]; 100 μg/ml, Table 2): 69%
- Antifungal index (%) ([2]; 200 μg/ml, Table 2): 85%
- IC50 [2, 17]: 160 µM
- IC50 value ([2]; Table 3): 173 µg/mL (≈ 613 µM)
- Antifungal index ([3]; 25 μg/ml, Example 3, FIG. 2(B)): 30%
- Antifungal index (%) ([3]; 50 μg/ml, Table 2): 49%
- Antifungal index (%) ([3]; 100 μg/ml, Table 1): 85 ± 26.2%
- Antifungal index (%) ([3]; 100 μg/ml, Table 2): 77%
- Antifungal index (%) ([3]; 200 μg/ml, Table 2): 93%
- IC50 [3, 17]: 240 µM
- IC50 value ([3]; Table 3): 50.8 µg/mL (≈ 180 µM)
- Antifungal index (%) ([4]; 50 μg/ml, Table 2): 85%
- Antifungal index (%) ([4]; 100 μg/ml, Table 1): 100 ± 0%
- Antifungal index (%) ([4]; 100 μg/ml, Table 2): 96%
- Antifungal index (%) ([4]; 200 μg/ml, Table 2): 100%
- IC50 [4, 17]: 40 µM
- IC50 value ([4]; Table 3): 50.6 µg/mL (≈ 179 µM)
- Antifungal index (%) ([5]; 25 μg/ml): 82%
- Antifungal index (%) ([5]; 50 μg/ml): 100%
- Antifungal index (%) ([5]; 200 μg/ml): 100%
- IC50 value ([5]; Table 3): <25 µg/mL
- Antifungal index (%) ([6]; 25 μg/ml): 3%
- Antifungal index (%) ([6]; 50 μg/ml): 50%
- Antifungal index (%) ([6]; 100 μg/ml): 75%
- Antifungal index (%) ([6]; 200 μg/ml): 64%
- IC50 value ([6]; Table 3): 50 µg/mL (≈ 177 µM)
- Antifungal index (%) ([7]; 25 μg/ml): 58%
- Antifungal index (%) ([7]; 50 μg/ml): 75%
- Antifungal index (%) ([7]; 100 μg/ml): 82%
- Antifungal index (%) ([7]; 200 μg/ml): 84%
- IC50 value ([7]; Table 3): <25 µg/mL
- Antifungal index (%) ([8]; 25 μg/ml): 52%
- Antifungal index (%) ([8]; 50 μg/ml): 78%
- Antifungal index (%) ([8]; 100 μg/ml): 94%
- Antifungal index (%) ([8]; 200 μg/ml): 100%
- IC50 value ([8]; Table 3): <25 µg/mL
- Antifungal index (%) ([9]; 25 μg/ml): 73%
- Antifungal index (%) ([9]; 50 μg/ml): 100%
- Antifungal index (%) ([9]; 200 μg/ml): 100%
- IC50 value ([9]; Table 3): <25 µg/mL
- Antifungal index (%) ([10]; 25 μg/ml): 16%
- Antifungal index (%) ([10]; 50 μg/ml): 40%
- Antifungal index (%) ([10]; 100 μg/ml): 60%
- Antifungal index (%) ([10]; 200 μg/ml): 83%
- IC50 value ([10]; Table 3): 114 µg/mL (≈ 404 µM)
- Percent inhibition ratio ([11]; 100 μg/cm^2 on filter paper): 51 ± 4.6%
- Percent inhibition ratio [11, 18]: 51%
- Percent inhibition ratio ([11]; 400 μg/cm^2 on filter paper): 94 ± 8.5%
- Percent inhibition ratio [11, 19]: 94%
- Percent inhibition ratio ([12]; 100 μg/cm^2 on filter paper): 72 ± 7.6%
- Percent inhibition ratio [12, 18]: 72%
- Percent inhibition ratio ([12]; 400 μg/cm^2 on filter paper): 99 ± 1.0%
- Percent inhibition ratio [12, 19]: 99%
- Percent inhibition ratio ([13]; 100 μg/cm^2 on filter paper): 100 ± 0%
- Percent inhibition ratio [13, 18]: 100%
- Percent inhibition ratio ([13]; 400 μg/cm^2 on filter paper): 100 ± 0%
- IC50 value [14]: less than 50 μg/ml
- inhibition (antifungal index), span over three fungi ([15]; 100 μg/ml, L. betulina, T versicolor and S. commune): 41˜69%
- IC50 value ([15]; white rot fungi): less than 200 μg/ml
- inhibition (antifungal index), span over five fungi [16]: 75˜96%
